Two compounds from BindingDB's records for doi:10.1021/jm00100a015 (Centre De Neurochimie Du Cnrs, 1992) can be followed below.

In this test the target is GABA-A receptor (Rattus norvegicus). Put plainly: Affinity for gamma-aminobutyric-acid A receptor measured by its ability to displace [3H]gabazine antagonist from rat brain preparations.

The term IC50 denotes the concentration at which inhibition is half-maximal. `N=c1ccc(-c2ccsc2)nn1Cc1cc(=O)[nH]o1` showed an IC50 of 88 nM.

`Cc1cc(-c2ccccc2)nn(CCCC(=O)O)c1=N` registered an IC50 of 800 nM.
